Measured values published in ChEMBL document CHEMBL1201862, “PubChem BioAssay data set” (2004).
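Where inhibition never reached the appropriate level, the endpoint shown equals the highest concentration tested. Otherwise, values were interpolated linearly from a five-concentration, 48-hour dose response in 96-well plates. Abbreviation: GI50, concentration required for 50% inhibition of growth.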 Active and inactive are the calls of the source. Cut-off read from the data, not from the text of the source: active = GI50 up to about 1.1 µM and inactive = higher. Square brackets hold non-standard residues; d marks the D form. Peptide text beside a SMILES is read from it. Phe(4-Cl) = N[CH](Cc1ccc(Cl)cc1)C(=O)O; 2Nal = N[CH](Cc1ccc2ccccc2c1)C(=O)O; 3Pal = N[CH](Cc1cccnc1)C(=O)O

Key:
Experiment in all cases: growth of human tumour cells (NCI), 48 h
A498 = tested on: A498
CAKI-1 = tested on: CAKI-1
DU-145 = tested on: DU-145
HL-60 = tested on: HL-60
Hs-578T = tested on: Hs-578T
KM12 = tested on: KM12
LOX IMVI = tested on: LOX IMVI
MDA-MB-231 = tested on: MDA-MB-231
MDA-MB-435 = tested on: MDA-MB-435
MOLT-4 = tested on: MOLT-4
Malme-3M = tested on: Malme-3M
NCI-H460 = tested on: NCI-H460
OVCAR-4 = tested on: OVCAR-4
SF-295 = tested on: SF-295
SK-MEL-2 = tested on: SK-MEL-2
SK-OV-3 = tested on: SK-OV-3
SW-620 = tested on: SW-620
UACC-62 = tested on: UACC-62
EKVX = tested on: EKVX
RPMI-8226 = tested on: RPMI-8226

Row | SMILES | GI50 (A498) | GI50 (CAKI-1) | GI50 (DU-145) | GI50 (HL-60) | GI50 (Hs-578T) | GI50 (KM12) | GI50 (LOX IMVI) | GI50 (MDA-MB-231) | GI50 (MDA-MB-435) | GI50 (MOLT-4) | GI50 (Malme-3M) | GI50 (NCI-H460) | GI50 (OVCAR-4) | GI50 (SF-295) | GI50 (SK-MEL-2) | GI50 (SK-OV-3) | GI50 (SW-620) | GI50 (UACC-62) | GI50 (EKVX) | GI50 (RPMI-8226)
1 | COc1ccc(S(=O)(=O)Nc2ccc(-c3csc(N4C(=O)/C(=C/c5ccccc5[N+](=O)[O-])N=C4c4ccccc4)n3)cc2)cc1Cl | 23.8 µM (inactive) | > 100 µM (inactive) | 83 µM (inactive) | 23.2 µM (inactive) | 40.4 µM (inactive) | 50.6 µM (inactive) | 34.8 µM (inactive) | 20.3 µM (inactive) | > 100 µM (inactive) | 29.9 µM (inactive) | 58.9 µM (inactive) | 40.8 µM (inactive) | 19.7 µM (inactive) | 47 µM (inactive) | 60.5 µM (inactive) | > 100 µM (inactive) | 46 µM (inactive) | 34.3 µM (inactive) | – | –
2 | C=CC[C@H]1[C@H](O[Si](C)(C)C(C)(C)C)C=CC(=O)[C@@H]1CC(=O)N(Cc1ccccc1)Cc1ccccc1 | 57.5 µM (inactive) | 12.4 µM (inactive) | 27.2 µM (inactive) | 5.48 µM (inactive) | 6.27 µM (inactive) | 15.9 µM (inactive) | 12.5 µM (inactive) | 14.2 µM (inactive) | 20.9 µM (inactive) | 9.93 µM (inactive) | – | 20.6 µM (inactive) | 17.5 µM (inactive) | 15.1 µM (inactive) | 14.8 µM (inactive) | 26.1 µM (inactive) | 26.7 µM (inactive) | 13.5 µM (inactive) | 12.9 µM (inactive) | 9.89 µM (inactive)
3 | COc1cc(Cn2c3c(c4c(C(=O)NCCN(C)C)c(O)ccc42)C(=O)c2ccccc2C3=O)cc(OC)c1 | 1.95 µM (inactive) | 1.68 µM (inactive) | 1.67 µM (inactive) | 2.04 µM (inactive) | 1.79 µM (inactive) | 1.58 µM (inactive) | – | 2.1 µM (inactive) | 1.75 µM (inactive) | – | 1.54 µM (inactive) | 1.79 µM (inactive) | 1.71 µM (inactive) | 1.92 µM (inactive) | 1.8 µM (inactive) | 1.94 µM (inactive) | – | 1.91 µM (inactive) | 1.82 µM (inactive) | 1.87 µM (inactive)
4 | Cc1nc2ccc(Cl)cc2c2c1CCN2c1ccccc1 | 14.8 µM (inactive) | 11.5 µM (inactive) | 19.5 µM (inactive) | 2.72 µM (inactive) | 21 µM (inactive) | 17.5 µM (inactive) | 10.3 µM (inactive) | 2.3 µM (inactive) | 7.62 µM (inactive) | 7.03 µM (inactive) | 17.4 µM (inactive) | 7.74 µM (inactive) | 26.4 µM (inactive) | 5.47 µM (inactive) | – | – | 18.6 µM (inactive) | 10.3 µM (inactive) | 21.2 µM (inactive) | 12.4 µM (inactive)
5 | N#Cc1nc(C2SCCCS2)oc1N | > 100 µM (inactive) | > 100 µM (inactive) | > 100 µM (inactive) | > 100 µM (inactive) | 43 µM (inactive) | > 100 µM (inactive) | > 100 µM (inactive) | > 100 µM (inactive) | > 100 µM (inactive) | > 100 µM (inactive) | – | – | > 100 µM (inactive) | – | > 100 µM (inactive) | > 100 µM (inactive) | > 100 µM (inactive) | > 100 µM (inactive) | > 100 µM (inactive) | 95.7 µM (inactive)
6 | CC1=NN(c2cccc(Cl)c2)C(=N/c2nc3ccccc3s2)/C1=C\c1ccccc1O | 23.2 µM (inactive) | 33.7 µM (inactive) | 43.8 µM (inactive) | 28.1 µM (inactive) | 22 µM (inactive) | 38.9 µM (inactive) | 19.9 µM (inactive) | 21 µM (inactive) | 33.6 µM (inactive) | 34.2 µM (inactive) | – | 27.1 µM (inactive) | 47.5 µM (inactive) | 30.5 µM (inactive) | 18.9 µM (inactive) | 26 µM (inactive) | 31.6 µM (inactive) | – | 64.9 µM (inactive) | 34.8 µM (inactive)
7 | Cc1ccc(C2(O)CS/C(=N\C34CC5CC(CC(C5)C3)C4)N2C(P(=O)(O)O)P(=O)(O)O)cc1 (stereo unspecified) | 82.8 µM (inactive) | > 100 µM (inactive) | > 100 µM (inactive) | 37.7 µM (inactive) | 73.1 µM (inactive) | > 100 µM (inactive) | – | 56.6 µM (inactive) | > 100 µM (inactive) | 37.9 µM (inactive) | 63.7 µM (inactive) | 41.3 µM (inactive) | > 100 µM (inactive) | 44.4 µM (inactive) | 27.5 µM (inactive) | 72.8 µM (inactive) | > 100 µM (inactive) | – | > 100 µM (inactive) | > 100 µM (inactive)
8 | O=C(O)CSC(CC(=O)c1ccc(Cl)cc1)c1ccc(Cl)cc1 (stereo unspecified) | 41.6 µM (inactive) | 35.3 µM (inactive) | 34.8 µM (inactive) | 2.37 µM (inactive) | 34.6 µM (inactive) | 8.07 µM (inactive) | 17.3 µM (inactive) | 42 µM (inactive) | 22.1 µM (inactive) | 6.81 µM (inactive) | – | 30.8 µM (inactive) | 27.4 µM (inactive) | 42.4 µM (inactive) | 50.8 µM (inactive) | 36.5 µM (inactive) | 4.17 µM (inactive) | 39.2 µM (inactive) | 41 µM (inactive) | 6.95 µM (inactive)
9 | CC(=O)NC(Cc1ccc2ccccc2c1)C(=O)NC(Cc1ccc(Cl)cc1)C(=O)NC(Cc1cccnc1)C(=O)NC(CO)C(=O)NC(Cc1ccc(O)cc1)C(=O)NC(CCCN=C(N)N)C(=O)NC(CC(C)C)C(=O)NC(CCCN=C(N)N)C(=O)N1CCCC1C(=O)NC(C)C(N)=O (stereo unspecified) (Ac-[2Nal][Phe(4-Cl)][3Pal]SYRLRPA-NH2; configuration not given here) | > 100 µM (inactive) | > 100 µM (inactive) | > 100 µM (inactive) | > 100 µM (inactive) | 50.2 µM (inactive) | > 100 µM (inactive) | – | > 100 µM (inactive) | 82.8 µM (inactive) | > 100 µM (inactive) | 28.8 µM (inactive) | 95.5 µM (inactive) | > 100 µM (inactive) | – | > 100 µM (inactive) | – | > 100 µM (inactive) | 77.4 µM (inactive) | > 100 µM (inactive) | > 100 µM (inactive)
10 | Fc1ccc2c3c([nH]c2c1)CCN(Cc1ccccc1)C3 | 17.8 µM (inactive) | – | 22.3 µM (inactive) | 17.3 µM (inactive) | 12 µM (inactive) | 15.3 µM (inactive) | 16.9 µM (inactive) | 24.3 µM (inactive) | 17.5 µM (inactive) | 17.3 µM (inactive) | 18.4 µM (inactive) | 17.3 µM (inactive) | 24.6 µM (inactive) | 14.7 µM (inactive) | – | 19.2 µM (inactive) | 20.1 µM (inactive) | 18.2 µM (inactive) | 20.9 µM (inactive) | 27.7 µM (inactive)
11 | O=C(O)C1C2C=CC(O2)C1C(=O)Nc1ccccc1 (stereo unspecified) | > 100 µM (inactive) | > 100 µM (inactive) | > 100 µM (inactive) | – | > 100 µM (inactive) | > 100 µM (inactive) | > 100 µM (inactive) | > 100 µM (inactive) | > 100 µM (inactive) | > 100 µM (inactive) | > 100 µM (inactive) | – | > 100 µM (inactive) | > 100 µM (inactive) | > 100 µM (inactive) | > 100 µM (inactive) | > 100 µM (inactive) | > 100 µM (inactive) | > 100 µM (inactive) | > 100 µM (inactive)
12 | COC(=O)C1C(C(=O)OC)C1(Br)CBr (stereo unspecified) | > 100 µM (inactive) | 17.8 µM (inactive) | > 100 µM (inactive) | 43.2 µM (inactive) | 89.1 µM (inactive) | > 100 µM (inactive) | 20.9 µM (inactive) | 87.5 µM (inactive) | 60.5 µM (inactive) | 6.15 µM (inactive) | – | > 100 µM (inactive) | 39.7 µM (inactive) | > 100 µM (inactive) | > 100 µM (inactive) | > 100 µM (inactive) | 31.7 µM (inactive) | > 100 µM (inactive) | 25.1 µM (inactive) | 16.5 µM (inactive)
13 | O=C(NCCN1CCOCC1)c1ccc2cc(C(=O)N3CC(CCl)c4ccc([N+](=O)[O-])cc43)[nH]c2c1 (stereo unspecified) | 7.03 µM (inactive) | 24.2 µM (inactive) | 17.5 µM (inactive) | 6.14 µM (inactive) | 4.83 µM (inactive) | 23.1 µM (inactive) | 2.63 µM (inactive) | 15.5 µM (inactive) | 15.5 µM (inactive) | 6.52 µM (inactive) | – | 11.4 µM (inactive) | 8.77 µM (inactive) | 3.18 µM (inactive) | 16 µM (inactive) | 16.1 µM (inactive) | 20.1 µM (inactive) | 11.9 µM (inactive) | 16.6 µM (inactive) | 2.43 µM (inactive)
14 | CC1(C)OCC(C(O)C2OC(C)(C)OC2C=O)O1 (stereo unspecified) | > 100 µM (inactive) | – | > 100 µM (inactive) | – | > 100 µM (inactive) | > 100 µM (inactive) | > 100 µM (inactive) | > 100 µM (inactive) | > 100 µM (inactive) | > 100 µM (inactive) | > 100 µM (inactive) | – | > 100 µM (inactive) | > 100 µM (inactive) | > 100 µM (inactive) | > 100 µM (inactive) | > 100 µM (inactive) | > 100 µM (inactive) | > 100 µM (inactive) | > 100 µM (inactive)
15 | O=C1Nc2ccccc2/C1=N/NC(=S)Nc1ccccc1Cl | 7.96 µM (inactive) | 3.8 µM (inactive) | 9.27 µM (inactive) | 4.44 µM (inactive) | 2.67 µM (inactive) | 1.98 µM (inactive) | 2.52 µM (inactive) | 11.3 µM (inactive) | 10.8 µM (inactive) | 1.43 µM (inactive) | 3.44 µM (inactive) | 0.735 µM (active) | 5.13 µM (inactive) | 1.29 µM (inactive) | 13.8 µM (inactive) | 10.7 µM (inactive) | 5.9 µM (inactive) | 3.94 µM (inactive) | 4.34 µM (inactive) | –
